Here are results for two molecules from patent US11365425B2, “Resistant protein for use in herbicide, encoding gene and application thereof” (BEIJING DABEINONG BIOTECHNOLOGY CO., LTD., priority 2016, dated 2022).

Series [1] deals with maize plants (Zm-MTHFR66). The note with it: 4480 g ae/ha dicamba (8 × dicamba), V5-V6 stage, 21 days after spraying. The source says:
(§1) The maize plants into which the optimized MTHFR66 nucleotide sequence was introduced, the maize plants into which the natural MTHFR66 nucleotide sequence was introduced and wild-type maize plants (at V5-V6 stage) were respectively tested for the herbicide resistance effect to dicamba.
(§2) The maize plants into which the optimized MTHFR66 nucleotide sequence was introduced, the maize plants into which the natural MTHFR66 nucleotide sequence was introduced and wild-type maize T1 hybrid plants (at V5-V6 stage) were taken and sprayed with a dicamba herbicide (4480 g ae/ha, 8-fold field concentration) and a blank solvent (water) respectively. 21 days after spraying, the support root development situation was collected. A total of three strains (S1, S2 and S3) of Zm-mMTHFR66, a total of two strains (S4 and S5) of Zm-MTHFR66, and a total of 1 strain of wild type (CK) were taken; and 10-15 plants were selected from each strain and tested.

Series [2] deals with maize plants (Zm-mMTHFR66). The note with it: 4480 g ae/ha dicamba (8 × dicamba), V5-V6 stage, 21 days after spraying.
Description: as §1, §2

The subject of series [3] is wild-type maize plants (CK). To be noted: 4480 g ae/ha dicamba (8 × dicamba), V5-V6 stage, 21 days after spraying.
Description: as §1, §2

Series [4] relates to wild-type Arabidopsis thaliana plants. The note with it: 560 g ae/ha dicamba (1 × dicamba) sprayed. The source says: (§3) Arabidopsis thaliana was first transformed with the MTHFR66 gene. T1 transformants were initially selected from the background of untransformed seeds using a glufosinate selection scheme. The plants that were transformed with the recombinant expression vector DBN111101 were Arabidopsis thaliana plants (At mMTHFR66) into which an optimized MTHFR66 nucleotide sequence located in the chloroplast was introduced, and the plants that were transformed with the recombinant expression vector DBN111101N were Arabidopsis thaliana plants (At MTHFR66) into which a natural MTHFR66 nucleotide sequence located in the chloroplast was introduced. […] Arabidopsis thaliana T1 plants (At-mMTHFR66) into which an optimized MTHFR66 nucleotide sequence was introduced, Arabidopsis thaliana T1 plants (At-MTHFR66) into which a natural MTHFR66 nucleotide sequence was introduced and wild-type Arabidopsis thaliana plants (18 days after sowing) were tested for the herbicide tolerance effect to dicamba.
(§4) Arabidopsis thaliana T1 plants into which an optimized MTHFR66 nucleotide sequence was introduced, Arabidopsis thaliana T1 plants into which a natural MTHFR66 nucleotide sequence was introduced and wild-type Arabidopsis thaliana plants were sprayed with dicamba (560 g ae/ha, 1-fold field concentration) and a blank solvent (water) respectively. Plants were counted for the tolerance situations 7 days and 14 days after spraying: those having a consistent growth status with the blank solvent (water) group after 7 days were classified as highly resistant plants, those having curled rosette leaves after 7 days were classified as moderately resistant plants, those still not capable of bolting after 14 days were classified as lowly resistant plants, and those dead after 14 days were classified as non-resistant plants. Since each Arabidopsis thaliana T1 plant was an independent transformation event, a significant difference in individual T1 responses could be expected at a given dose. The results were shown as Table 1 and FIG. 9.

For series [5], the system named is Arabidopsis thaliana T1 plants (At-mMTHFR66). The note with it: 560 g ae/ha dicamba (1 × dicamba) sprayed.
Description: as §3, §4

For series [6], the system named is Arabidopsis thaliana T1 plants (At-MTHFR66). To be noted: 560 g ae/ha dicamba (1 × dicamba) sprayed.
Description: as §3, §4

The nature of series [7]: Dicamba demethylation function of MTHFR66 protein in the presence of trace tetrahydrofolate. In kind it is biochemical. The note with it: 1 mM dicamba, 30° C., 1 hour. The protocol: […] The reaction solution was lyophilized, and then dissolved by adding 300 μl of methanol. The amount of the generated intermediate metabolite of dicamba, DCSA, was detected using high performance liquid chromatography (HPLC).

A short description of series [8]: Determination of enzymatic activity of MTHFR66 protein (dicamba to DCSA, HPLC). In kind it is biochemical. As for the experimental part:
Enzymatic reaction system (300 μL): containing 1 mM substrate (dicamba), 0.2 mg of MTHFR66, 1 mM tetrahydrofolate (THF) and a buffer system of Tris-HCl at a concentration of 100 mM (pH 8.0), which were reacted in a water bath at a temperature of 30° C. for 1 hour, then kept in boiling water for 1 min, after which the reaction was terminated. The reaction solution was lyophilized, and then dissolved by adding 300 μl of methanol. The amount of the generated intermediate metabolite of dicamba, 3,6-dichlorosalicylic acid (DCSA), was detected using high performance liquid chromatography (HPLC). An enzymatic activity unit is defined as: the amount of enzyme required for degradation of dicamba to generate 1 nmol of product DCSA at pH 8.0, at a temperature of 30° C. within 1 min, and is expressed as U.

Series [9] in a line: Hydrolase functional determination and product identification of MTHFR66 protein. It counts as biochemical. To be noted: absence of the electron acceptor NAD+. The protocol: Enzymatic reaction system (300 μL): containing 0.2 mg of MTHFR66, 1 mM 5-methyl-tetrahydrofolate (5-CH3—H4F) and a buffer system of Tris-HCl at a concentration of 100 mM (pH 8.0), which were reacted in a water bath at a temperature of 30° C. for 1 hour, then kept in boiling water for 1 min, after which the reaction was terminated. The reaction solution was lyophilized, dissolved by adding 300 μl of 0.1 mol/L KH2PO4 (pH 6.8, 1% ascorbic acid and 0.1% β-mercaptoethanol), filtered using a filter membrane (with a pore size of 0.22 μm), and detected using high performance liquid chromatography. Liquid chromatography conditions were: mobile phase: 0.05 mol/l KH2PO4 (pH 3.0):acetonitrile (90:10, V/V), Zorbax C218 ODS Spherex reversed phase column (5 μm, 4.6 mm×250 mm, Agilent, USA), column temperature of 23° C., UV-detector, with a detection wavelength of 298 nm, a sample injection volume of 20 μl, and a flow rate of 1.0 mL/min. Quantification was performed by peak area according to the external standard method.
Metabolites were identified through HPLC-MS (high performance liquid chromatography-mass spectrum) under the conditions as follows: mobile phase: 0.05 mol/l KH2PO4 (pH 3.0):acetonitrile (90:10, V/V), Zorbax XDB-C18, 5 cm×0.46 cm, 1.8 mm reversed phase column (5 μm, 4.6 mm×250 mm, Agilent, USA), and a flow rate of 0.25 mL/min. […]

Setting [10] is: curled rosette leaves after 7 days.
[11] abbreviates: growth consistent with water group after 7 days.
Where [12] appears, read: not capable of bolting after 14 days.

Like-named read-outs stand apart in the source and are kept apart here.

With `COc1c(Cl)ccc(Cl)c1C(=O)O` [dicamba, 3,6-dichloro-o-anisic acid], the “Proportion of normally developed support root” value in series [1] (strain S4 (Zm-MTHFR66)) is on record as 16.67%; in [1] (strain S5 (Zm-MTHFR66)), 30.77%; in series [2] (strain S1 (Zm-mMTHFR66)), 92.31%; in series [2] (strain S2 (Zm-mMTHFR66)), 90.91%; in [2] (strain S3 (Zm-mMTHFR66)), 83.33%; in series [3] it was 0%. In addition, the “Support root abnormally developed (number of plants)” value in series [1] (strain S4 (Zm-MTHFR66)) was determined as 10; in series [1] (strain S5 (Zm-MTHFR66)) it was 9; in series [2] (strain S1 (Zm-mMTHFR66)), 1; in [2] (strain S2 (Zm-mMTHFR66)), 1; in series [2] (strain S3 (Zm-mMTHFR66)), 2; in series [3], 16. In addition, the “Support root normally developed (number of plants)” value is 2 in series [1] (strain S4 (Zm-MTHFR66)); 4 in [1] (strain S5 (Zm-MTHFR66)); 12 in series [2] (strain S1 (Zm-mMTHFR66)); 10 in series [2] (strain S2 (Zm-mMTHFR66)); 10 in series [2] (strain S3 (Zm-mMTHFR66)); 0 in series [3]. Moreover, the “Moderately resistant (number of plants)” value is 0 in series [4] (setting [10]), 18 in series [5] (setting [10]) and 3 in [6] (setting [10]). Also, the “Non-resistant (number of plants)” value in series [4] (dead after 14 days) is on record as 22; in [5] (dead after 14 days), 5; in [6] (dead after 14 days), 19. Also, the “Highly resistant (number of plants)” value in series [4] (setting [11]), in series [5] (setting [11]) and in series [6] (setting [11]) was 0 throughout. Also, the “Lowly resistant (number of plants)” value in series [4] (setting [12]) was determined as 0; in [5] (setting [12]) it was 0; in series [6] (setting [12]), 2.

B1: MTHFR66 protein: herbicide resistant protein, methyltetrahydrofolate reductase, amino acid sequence SEQ ID NO: 2 (289 amino acids) (protein, listed as Sphingomonas paucimobilis)
chain: MGSPVMAIDCDSVPDNLVHCFSIEMTGKDIDALQAAAPLLPPGTSVAVTFLPGENYETRIAACKAVRDLGFEPMPHFSARRIQDEAEFHDFLHAVVAEAKVRRCFVIAGDAAEPEGPYADSMQLIASGAFEAAGIDLIGVAGHPEGHPNMTAGEATAVLRAKTDEIERRGMAALIVTQFTFDAARTLDWLAEVRQAGIDVPVLLGVPGPAGIKTLLRFAARCGVGASASVLSKYGISIGHLLGSAGPDRFVDALRAGIGEQHGHVRLHFYPFGGLDKTARWIADYARKH
With B1, the figures for the “demethylation of dicamba to DCSA” value in [7] (in the presence of 0.01 mM tetrahydrofolate) and in series [7] (in the presence of 0.5 mM of tetrahydrofolate) were “can demethylate dicamba to generate DCSA” and “can fully demethylate 1 mM dicamba to generate DCSA”, respectively. The “DCSA generated within 1 hour” value in series [8] (1 mM dicamba, 0.2 mg MTHFR66, 1 mM THF, Tris-HCl pH 8.0, 30° C., 1 hour) is 0.15 mM. In addition, the specific enzymatic activity in series [8] (U = enzyme generating 1 nmol DCSA from dicamba at pH 8.0, 30° C. within 1 min) stood at 3.75 U/mg. The “product of 5-methyl-tetrahydrofolate metabolism (HPLC-MS)” value in series [9] is “can hydrolyze 5-methyl-tetrahydrofolate to tetrahydrofolate”. In [9] (1 mM 5-methyl-tetrahydrofolate, 30° C., 1 hour), the “transformation of 5-methyl-tetrahydrofolate (HPLC)” value is “can transform 5-methyl-tetrahydrofolate to other substances”.
